How the values were obtained:
Format in all cases: physicochemical
[1] = Gelling of water-immiscible cosmetic liquids in 96 well glass micro-titre plate; parameters: key: gel; g4: gel after overnight (18 hrs) storage at 4° C.; g22: gel after overnight (18 hrs) storage at 22° C.; sg: soft gel; sg22: soft gel after overnight (18 hrs) storage at 22° C.; solution; *: the test at 4° C. was not carried out; conditions: for gelling of ISA: 150° C. 2.5 hours, cooled to ambient
In short: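 Esterified cellobiose at about 5% or 10% was mixed with the cosmetic liquid in lidded glass wells and heated at 150 °C for 2.5 h, then cooled to ambient. Gelling was judged by visual inspection and micro-spatula probing after cooling, after 18 h at 18 °C, and after a further 18 h at 4 °C.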

[2] = Visual assessment score (clarity of gel in 1 cm cuvette); conditions: for Clarity Visual (assessment score): scale −12 to 8
From the text: A gel contained within a 1 cm thick cuvette was placed directly on to a sheet of white paper on which 21 sets of figures where printed in black. The size and thickness of the figures varied systematically and were numbered from −12 (the largest, thickest set) through 0 to 8 (the smallest thinnest set) The score given to each gel was the highest numbered set which could be read clearly through the gel, the higher the number, the higher the clarity.

[3] = Light transmission at 580 nm (% T); conditions: 580 nm
Procedure: The translucency of a composition may be measured by placing a sample of standardised thickness in the light path of a spectrophotometer and measuring transmittance, as a percentage of light transmitted in the absence of the gel.
This test was carried out using a dual-beam spectrophotometer. The sample of composition was poured hot into a 4.5 ml cuvette made of poly(methyl-methacrylate) (PMMA) and allowed to cool to an ambient temperature of 20-25° C. Such a cuvette gives a 1 cm thickness of composition. […] A transmittence measured at any temperature in the range from 20-25° C. is usually adequately accurate, but measurement is made at 22° C. if more precision is required.

[4] = Stability testing of gels: crystal growth visible by eye on storage at 37° C.
Procedure: Gels were made up using 10% structurant in a 60:40 mixture of Hydrogenated Polyisobutene (Panalene L14E):DC245. The gels, in sealed glass bottles, were left to stand for 18 hrs at room temperature, after which they were transferred to an oven thermostatically controlled to 37° C. Samples were checked periodically for signs of crystal growth visible by eye. REF1 is cellobiose octanonanoate.
Gels were made up and tested in accordance with the procedure in Example 6, as such or modified by employing a weight ratio of 9% of REF1 and 1% of an additional structurant as specified in Table 13 below.
The test procedure of Example 9 was repeated, but using ACB structurant REF2 alone as the structurant or to which a CHME structurant was added.

[5] = DSC of gels: fibre dissolution temperature (FDT) and solubility of structurant; conditions: for Solubility of structurant at 25° C.: from DSC of gel, relative to benchmark REF 2; for FDT: gel heated at 5 K/min in DSC, peak temperature of the highest peak
Procedure: In this Example the Fibre dissolution temperature (FDT) is measured in the DSC process described later herein, by observing when the fibres dissolve whilst the temperature of sample rises. FDT is taken to be the peak temperature of the highest peak.
In REF2 and REF3, the acyl substituents at the other seven cellobiose sites are nonanoyl.
Samples of gel (about 20 mg) were sealed in stainless steel capsules for DSC. An empty stainless steel capsule was used as the physical reference. The samples were subjected to the following temperature programme:
The sample was heated to 100° C. and held at 100° C. for 1 minute, in order to obtain an isotropic solution. The sample was then cooled at 5 K/min to −20° C. The sample was held at −20° C. for 1 minute. The sample is now a gel on the bottom of the sample capsule prepared in a reproducible manner. The gel was then heated at 5 K/min to 100° C. Data was also obtained with empty stainless steel pans as both physical sample and reference. This blank data was later subtracted from the sample data to remove any curvature in the base line.

[6] = 5% cellobiose ester in Fluid AP
[7] = 5% cellobiose ester in Mineral oil
[8] = 5% cellobiose ester in Polydecene
[9] = 10% cellobiose ester in Fluid AP
[10] = 10% cellobiose ester in Mineral oil
[11] = 10% cellobiose ester in Polydecene
[12] = 9% REF2 and 1% of the specified ester in 60:40 hydrogenated polydecene:DC245
[13] = 60:40 hydrogenated polydecene:DC245 gelled with 9% REF2 and 1% of the specified cellobiose ester
[14] = 9% REF4 plus 1% of the named material in 60:40 hydrogenated polydecene:DC245
[15] = 9% REF4 plus 1% of the named material

Compound	gelling of DC556 ([1]; 5% cellobiose ester in DC556)	gelling of Fluid AP [1, 6]	gelling of IPM ([1]; 5% cellobiose ester in IPM)	gelling of ISA ([1]; 5% cellobiose ester in ISA)	gelling of Mineral oil [1, 7]	gelling of Polydecene [1, 8]	gelling of DC556 ([1]; 10% cellobiose ester in DC556)	gelling of Fluid AP [1, 9]	gelling of IPM ([1]; 10% cellobiose ester in IPM)	gelling of ISA ([1]; 10% cellobiose ester in ISA)	gelling of Mineral oil [1, 10]	gelling of Polydecene [1, 11]	Clarity Visual (assessment score) [2, 12]	Clarity Visual (appearance) [2, 13]	Clarity % T [3, 12]	Clarity Visual (appearance) [2, 14]	Clarity Visual (assessment score) [2, 15]	Clarity % T [3, 15]	further results
CCCCCCCCC(=O)OCC1OC(OC2C(COC(=O)CCCCCCCC)OC(OC(=O)c3ccc4ccccc4c3)C(OC(=O)CCCCCCCC)C2OC(=O)CCCCCCCC)C(OC(=O)CCCCCCCC)C(OC(=O)CCCCCCCC)C1OC(=O)CCCCCCCC (mixture of isomers) [Ex 1.4]	gel	gel	sol	g22	g22	g22	gel	gel	sol	g22	g22	gel	slight haze >8	transparent/	38%				gelling of Finsolv TN ([1]; 5% cellobiose ester in Finsolv TN): sol; gelling of Finsolv TN ([1]; 10% cellobiose ester in Finsolv TN): sol
CCCCCCCCCC(=O)OCC1OC(OC2C(COC(=O)CCCCCCCCC)OC(OC(=O)c3ccc(-c4ccccc4)cc3)C(OC(=O)CCCCCCCCC)C2OC(=O)CCCCCCCCC)C(OC(=O)CCCCCCCCC)C(OC(=O)CCCCCCCCC)C1OC(=O)CCCCCCCCC (mixture of isomers) [Ex 2.9]	gel	gel		g22	sg	gel	gel	gel		gel	gel	gel				translucent	−3	7.7%	
CCCCCCCCCCCCCCCC(=O)OC1OC(COC(=O)CCCCCCCC)C(OC2OC(COC(=O)CCCCCCCC)C(OC(=O)CCCCCCCC)C(OC(=O)CCCCCCCC)C2OC(=O)CCCCCCCC)C(OC(=O)CCCCCCCC)C1OC(=O)CCCCCCCC (mixture of isomers) [Ex 1.9]	gel	gel	g4	g22	g22	gel			g4				> 8	transparent	45%				
CCCCCCCCCC(=O)OCC1OC(OC2C(COC(=O)CCCCCCCCC)OC(OC(=O)c3ccccc3)C(OC(=O)CCCCCCCCC)C2OC(=O)CCCCCCCCC)C(OC(=O)CCCCCCCCC)C(OC(=O)CCCCCCCCC)C1OC(=O)CCCCCCCCC (mixture of isomers) [Ex 2.1]	gel	gel		gel	gel	gel	gel	gel		gel	gel	gel				translucent	−1	9.53%	
cellobiose heptanonanoate monocyclohexanoate [Ex 1.10]	gel	gel	sol	g22	gel	gel	gel	gel	g4	gel	gel	gel	slight haze 6	transparent/	42%				Observations ([4]; 9% of REF1 and 1% of additional structurant, after 12 days at 37° C.): No crystal growth after 12 days at 37 °C; Observation ([4]; 10% structurant in 60:40 Panalene L14E:DC245, after 17 days at 37° C.): No crystals after 17 days.; Observation ([4]; REF2 to which the CHME structurant was added, after 11 days at 37° C.): Some needle crystals on surface after 11; Observation ([4]; REF2 to which the CHME structurant was added, after 12 days at 37° C.): Some needle crystals in gel bulk after 12; Visual ([2]; gel in 60:40 w/w Silkflo 364:DC245, score scale −12 to 8): >8
CCCCCCCCCC(=O)OCC1OC(OC2C(COC(=O)CCCCCCCCC)OC(OC(=O)c3ccc4ccccc4c3)C(OC(=O)CCCCCCCCC)C2OC(=O)CCCCCCCCC)C(OC(=O)CCCCCCCCC)C(OC(=O)CCCCCCCCC)C1OC(=O)CCCCCCCCC (mixture of isomers) [Ex 2.7]	gel	gel		gel	gel	gel	gel	gel		gel	gel	gel				translucent	0	8.7%	
CCCCCCCCC(=O)OCC1OC(OC2C(COC(=O)CCCCCCCC)OC(OC(C)=O)C(OC(=O)CCCCCCCC)C2OC(=O)CCCCCCCC)C(OC(=O)CCCCCCCC)C(OC(=O)CCCCCCCC)C1OC(=O)CCCCCCCC (mixture of isomers) [Ex 1.5]	g22	gel		g22	g22	gel	gel	gel		gel	gel	gel	> 8	transparent	49%				Solubility of structurant at 25° C. [5]: Less soluble. No; FDT [5]: 50 °C
CCCCCCCCC(=O)OCC1OC(OC2C(COC(=O)CCCCCCCC)OC(OC(C)=O)C(OC(=O)CCCCCCCC)C2OC(=O)CCCCCCCC)C(OC(=O)CCCCCCCC)C(OC(=O)CCCCCCCC)C1OC(=O)CCCCCCCC (mixture of isomers) [Ex 1.6]	sg22	sg		sg	sg	gel	gel	gel		gel	gel	gel	> 8	transparent	49%				Solubility of structurant at 25° C. [5]: Less soluble. No; FDT [5]: 70 °C
CCCCCCCCCC(=O)OCC1OC(OC2C(COC(=O)CCCCCCCCC)OC(OC(=O)C3CCCCC3)C(OC(=O)CCCCCCCCC)C2OC(=O)CCCCCCCCC)C(OC(=O)CCCCCCCCC)C(OC(=O)CCCCCCCCC)C1OC(=O)CCCCCCCCC (mixture of isomers) [Ex 2.10]	gel	gel		g22	gel	gel	gel	gel		gel	gel	gel				translucent	−5	5.9%	

— patent publication US6974804B2, “Esters” (Unilever Home & Personal Care USA, division of Conopco, Inc., priority 2000, dated 2005)
